T1: hTAS1R2/hTAS1R3 (Homo sapiens, UniProt Q7RTX0+Q8TE23)
T1 construct: expressed in transfected cells; host or cells: HEK293T cells stably expressing Gα16gust44, transiently transfected
T1 sequence (Q8TE23 20-839): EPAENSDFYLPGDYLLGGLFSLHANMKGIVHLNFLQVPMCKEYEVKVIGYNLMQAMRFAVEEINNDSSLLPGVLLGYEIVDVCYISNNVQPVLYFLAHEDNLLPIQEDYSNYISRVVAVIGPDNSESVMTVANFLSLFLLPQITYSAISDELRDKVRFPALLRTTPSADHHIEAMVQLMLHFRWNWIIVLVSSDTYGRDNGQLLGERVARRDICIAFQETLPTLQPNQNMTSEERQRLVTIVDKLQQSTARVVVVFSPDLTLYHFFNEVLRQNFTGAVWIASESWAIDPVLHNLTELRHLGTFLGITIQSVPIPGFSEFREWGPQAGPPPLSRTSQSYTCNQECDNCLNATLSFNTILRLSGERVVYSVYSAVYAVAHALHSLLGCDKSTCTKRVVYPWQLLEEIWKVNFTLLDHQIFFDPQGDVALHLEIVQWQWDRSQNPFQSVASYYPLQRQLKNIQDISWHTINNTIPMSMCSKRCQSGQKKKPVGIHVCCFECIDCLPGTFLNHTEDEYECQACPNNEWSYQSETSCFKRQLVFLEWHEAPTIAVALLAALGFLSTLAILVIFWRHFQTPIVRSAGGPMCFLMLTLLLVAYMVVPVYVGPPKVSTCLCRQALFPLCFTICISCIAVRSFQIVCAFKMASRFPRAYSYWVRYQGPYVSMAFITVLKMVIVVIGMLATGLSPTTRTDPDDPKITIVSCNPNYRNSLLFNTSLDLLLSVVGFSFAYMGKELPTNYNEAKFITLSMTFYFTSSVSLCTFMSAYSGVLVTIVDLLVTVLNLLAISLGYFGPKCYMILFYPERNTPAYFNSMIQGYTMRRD
T1 sequence (Q7RTX0 21-852): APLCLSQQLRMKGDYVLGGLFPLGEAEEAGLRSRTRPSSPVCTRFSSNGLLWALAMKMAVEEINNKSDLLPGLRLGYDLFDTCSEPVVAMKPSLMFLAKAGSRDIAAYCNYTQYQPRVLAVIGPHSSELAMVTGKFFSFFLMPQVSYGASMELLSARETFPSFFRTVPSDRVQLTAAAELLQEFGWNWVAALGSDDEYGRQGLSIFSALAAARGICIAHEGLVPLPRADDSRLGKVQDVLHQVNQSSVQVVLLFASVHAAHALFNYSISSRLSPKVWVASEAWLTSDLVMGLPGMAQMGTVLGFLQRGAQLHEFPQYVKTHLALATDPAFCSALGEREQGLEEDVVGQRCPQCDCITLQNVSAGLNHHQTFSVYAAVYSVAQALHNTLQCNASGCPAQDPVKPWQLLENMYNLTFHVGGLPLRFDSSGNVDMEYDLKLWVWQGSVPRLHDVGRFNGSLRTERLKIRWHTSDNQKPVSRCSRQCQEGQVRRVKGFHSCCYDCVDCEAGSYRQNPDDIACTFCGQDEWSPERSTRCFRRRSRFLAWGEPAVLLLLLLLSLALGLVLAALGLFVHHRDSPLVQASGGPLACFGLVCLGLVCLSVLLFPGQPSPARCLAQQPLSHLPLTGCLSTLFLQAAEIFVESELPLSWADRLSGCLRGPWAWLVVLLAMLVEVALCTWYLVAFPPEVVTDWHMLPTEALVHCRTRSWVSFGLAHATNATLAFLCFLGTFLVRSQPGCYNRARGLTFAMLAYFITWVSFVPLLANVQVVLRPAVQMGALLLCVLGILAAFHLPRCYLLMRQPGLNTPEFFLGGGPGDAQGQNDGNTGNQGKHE

T2: hTAS1R2 (Homo sapiens, UniProt Q8TE23)
T2 sequence (Q8TE23 20-839): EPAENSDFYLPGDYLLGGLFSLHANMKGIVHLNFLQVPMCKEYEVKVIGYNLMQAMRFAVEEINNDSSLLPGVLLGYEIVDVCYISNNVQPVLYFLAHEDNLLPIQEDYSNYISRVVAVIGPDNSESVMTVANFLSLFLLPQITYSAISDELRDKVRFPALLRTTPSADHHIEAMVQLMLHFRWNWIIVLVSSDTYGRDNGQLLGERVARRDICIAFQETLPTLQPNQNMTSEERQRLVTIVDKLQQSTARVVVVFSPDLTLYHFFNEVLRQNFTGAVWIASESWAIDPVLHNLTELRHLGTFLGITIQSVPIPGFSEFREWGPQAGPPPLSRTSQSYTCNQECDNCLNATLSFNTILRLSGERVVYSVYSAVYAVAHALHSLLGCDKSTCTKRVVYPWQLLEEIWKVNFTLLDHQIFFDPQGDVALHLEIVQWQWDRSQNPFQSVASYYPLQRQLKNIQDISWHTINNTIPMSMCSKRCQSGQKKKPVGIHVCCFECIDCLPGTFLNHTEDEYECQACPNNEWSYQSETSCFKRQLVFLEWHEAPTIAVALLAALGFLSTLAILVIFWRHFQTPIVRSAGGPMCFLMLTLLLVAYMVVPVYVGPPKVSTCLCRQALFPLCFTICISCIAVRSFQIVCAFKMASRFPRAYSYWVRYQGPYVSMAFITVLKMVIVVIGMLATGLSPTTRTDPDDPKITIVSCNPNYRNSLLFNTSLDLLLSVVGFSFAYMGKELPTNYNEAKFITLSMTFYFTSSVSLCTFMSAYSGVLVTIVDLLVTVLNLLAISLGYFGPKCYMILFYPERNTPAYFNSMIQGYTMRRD

T3: hTAS1R3 (Homo sapiens, UniProt Q7RTX0)
T3 construct: expressed in transfected cells; host or cells: HEK293T cells stably expressing Gα16gust44, transiently transfected
T3 sequence (Q7RTX0 21-852): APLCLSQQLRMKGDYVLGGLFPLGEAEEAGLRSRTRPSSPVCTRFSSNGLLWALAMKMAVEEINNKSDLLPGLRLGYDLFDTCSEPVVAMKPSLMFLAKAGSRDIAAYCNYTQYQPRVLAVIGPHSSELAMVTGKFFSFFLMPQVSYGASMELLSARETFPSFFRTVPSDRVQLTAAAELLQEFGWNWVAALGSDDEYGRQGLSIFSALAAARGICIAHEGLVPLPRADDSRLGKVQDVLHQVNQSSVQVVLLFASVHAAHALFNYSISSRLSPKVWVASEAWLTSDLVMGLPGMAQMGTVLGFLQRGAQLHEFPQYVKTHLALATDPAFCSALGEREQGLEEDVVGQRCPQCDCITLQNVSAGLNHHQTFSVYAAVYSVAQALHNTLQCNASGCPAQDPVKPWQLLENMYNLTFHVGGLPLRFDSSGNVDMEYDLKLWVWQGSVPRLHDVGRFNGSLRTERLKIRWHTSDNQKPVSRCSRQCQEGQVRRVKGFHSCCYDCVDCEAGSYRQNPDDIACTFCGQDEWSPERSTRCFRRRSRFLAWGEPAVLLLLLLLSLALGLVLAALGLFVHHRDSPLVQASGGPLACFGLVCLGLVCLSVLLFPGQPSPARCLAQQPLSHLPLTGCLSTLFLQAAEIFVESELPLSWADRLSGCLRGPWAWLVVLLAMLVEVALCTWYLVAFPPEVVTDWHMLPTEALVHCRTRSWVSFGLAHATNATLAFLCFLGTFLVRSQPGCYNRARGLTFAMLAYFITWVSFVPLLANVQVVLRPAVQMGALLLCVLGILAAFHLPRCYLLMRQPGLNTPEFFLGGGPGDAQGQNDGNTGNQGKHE


What was measured:
hTAS1R2/hTAS1R3 = molecular target: T1, hTAS1R2/hTAS1R3; assay: Calcium assay (GCaMP6S) in HEK293T-Gα16gust44 cells transfected with hTAS1R2-FLAG and hTAS1R3-FLAG; assay type: cell-based; settings: HEK293T-Gα16gust44 cells transiently transfected with GCaMP6S
Source text: (§1) We used a calcium imaging assay to establish dose–response curves for the sweet taste receptor hTAS1R2/hTAS1R3 and determine EC50 values for the sweet stimuli previously tested in spectrofluorimetric experiments. We cloned the cDNAs coding hTAS1R2 and hTAS1R3 subunits into pcDNA6 and pcDNA4 expression plasmids, respectively, and we added FLAG tag to C-terminus of each construct to measure protein expression level by immunocytochemistry as described previously. HEK293T cells stably transfected with Gα16gust44 were seeded at a density of 0.35 × 10^6 cells per well into 96-well black walled, clear bottom microtiter plates (Falcon) in high-glucose DMEM supplemented with 2 mM GlutaMAX, 10% dialyzed foetal bovine serum, penicillin/streptomycin and G418 (400 µg/mL) at 37 °C and 6.3% CO2, in a humidified atmosphere. After 48 h, the cells were transiently transfected with each TAS1R subunit (60 ng/well for each plasmid) and plasmid pGP-CMV-GCaMP6S (Addgene #40753, 50 ng per well) coding for a green fluorescent protein-based calcium indicator, using Fugene HD (0.4 µL/well). After a further 24 h incubation, the cells were washed twice with buffer C1 and then stimulated with sweet tasting compounds. After excitation at 488 nm, calcium responses were recorded at 510 nm using a Molecular Devices FlexStation 3 system. Acquisition was made simultaneously from 8 wells corresponding to the range of taste solutions. We averaged the responses of 18 wells receiving the same stimulus one three independent experiments. We subtracted the mean calcium traces of mock-transfected cells stimulated with the same concentration of stimulus. Plots of the fluorescence variation amplitude versus concentration were fitted by four-parameter logistic nonlinear regression allowing us to calculate the EC50 values of activation.

hTAS1R2 [1] = molecular target: T2, hTAS1R2; assay: Calcium assay (GCaMP6S) in HEK293T-Gα16gust44 cells transfected with hTAS1R2-FLAG alone; assay type: cell-based; settings: HEK293T-Gα16gust44 cells transiently transfected with GCaMP6S and hTAS1R2-FLAG alone
Source text: as §1, with “After a further 24 h incubation, the cells were washed twice with buffer C1 and then stimulated with sweet tasting compounds.” left out, “Acquisition was made simultaneously from 8 wells corresponding to the range of taste solutions. We averaged the responses of 18 wells receiving the same stimulus one three independent experiments. We subtracted the mean calcium traces of mock-transfected cells stimulated with the same concentration of stimulus.” left out

hTAS1R3 = molecular target: T3, hTAS1R3; assay: Calcium assay (GCaMP6S) in HEK293T-Gα16gust44 cells transfected with hTAS1R3-FLAG alone; assay type: cell-based; settings: HEK293T-Gα16gust44 cells transiently transfected with GCaMP6S and hTAS1R3-FLAG alone
Source text: as §1

hTAS1R2 [2] = molecular target: T2, hTAS1R2; assay: Intrinsic tryptophan fluorescence ligand binding to purified detergent-solubilized hTAS1R2; design: made in house; settings: purified FLAG-tagged hTAS1R2 0.10 µM in PBS, 0.1% LMNG, 20 °C; λex 280 nm, λem 340 nm
Description: Intrinsic fluorescence spectra were recorded with a Cary Eclipse spectrofluorimeter (Varian Instruments, Les Ulis, France) equipped with a Peltier temperature control unit. The temperature was maintained at 20 °C. FLAG-tagged hTAS1R2 protein (0.10 µM in PBS, 0.1% LMNG buffer) was excited at 280 nm, and the emission spectra were recorded from 300 to 400 nm, with a 10 nm bandwidth for both excitation and emission in the presence and absence of ligands. The sweetener solutions were freshly prepared in PBS-0.1% LMNG buffer. Successive aliquots of ligand solutions were added to 400 µL of the FLAG-tagged hTAS1R2 solution. […] The fluorescence measurements were corrected for bleaching and nonspecific buffer quenching. The dissociation constants (Kd) were calculated from a plot of the fluorescence intensity measured at the maximum emission wavelength (340 nm) versus the concentration of total ligand obtained with a standard nonlinear regression method using SigmaPlot software (Systat Software Inc., San Jose, CA, USA). The reported Kd values are the average of triplicate measurements performed on at least three independently purified protein samples.

[3] = molecular target: the molecule itself; assay: SEC-MALS; pooled gel filtration peak 4 (fractions 14-16) of FLAG-tagged hTAS1R2; Superdex 200 Increase 3.2/300, PBS with 0.1% LMNG, pH 7.3, 0.1 mL/min; MALS, RI and UV (280 nm) detectors; protein-detergent complexes

EC50 (hTAS1R2/hTAS1R3)	EC50 (hTAS1R2 [1])	EC50 hTAS1R3 (hTAS1R3)	Kd (hTAS1R2 [2])	Molecule	stoichiometry N [3]
2.54 ± 0.48 µM	61 ± 13 µM	n.r.	373 ± 110 µM	C=C(C)C1CC=C(/C=N/O)CC1 (stereo in doubt) [Perillartine, perillartine]	
36 ± 2 µM		n.r.	29 ± 8 µM	OC[C@H]1O[C@H](O[C@]2(CCl)O[C@H](CCl)[C@@H](O)[C@@H]2O)[C@H](O)[C@@H](O)[C@H]1Cl [Sucralose, sucralose]	
				FLAG-tagged human TAS1R2 (taste receptor type 1, member 2) (receptor, UniProt Q8TE23 20-839, looked up, human TAS1R2 (taste receptor type 1, member 2), UniProtKB Q8TE23, full-length protein from a codon-optimised synthetic gene; the purified protein is still detected and captured by anti-FLAG M2; Theoretical mass of FLAG-tagged hTAS1R2 printed as 96.2 kDa; In LMNG detergent; also called hTAS1R2; FLAG-hTAS1R2; not shown: FLAG, N-terminal, kept) EPAENSDFYLPGDYLLGGLFSLHANMKGIVHLNFLQVPMCKEYEVKVIGYNLMQAMRFAVEEINNDSSLLPGVLLGYEIVDVCYISNNVQPVLYFLAHEDNLLPIQEDYSNYISRVVAVIGPDNSESVMTVANFLSLFLLPQITYSAISDELRDKVRFPALLRTTPSADHHIEAMVQLMLHFRWNWIIVLVSSDTYGRDNGQLLGERVARRDICIAFQETLPTLQPNQNMTSEERQRLVTIVDKLQQSTARVVVVFSPDLTLYHFFNEVLRQNFTGAVWIASESWAIDPVLHNLTELRHLGTFLGITIQSVPIPGFSEFREWGPQAGPPPLSRTSQSYTCNQECDNCLNATLSFNTILRLSGERVVYSVYSAVYAVAHALHSLLGCDKSTCTKRVVYPWQLLEEIWKVNFTLLDHQIFFDPQGDVALHLEIVQWQWDRSQNPFQSVASYYPLQRQLKNIQDISWHTINNTIPMSMCSKRCQSGQKKKPVGIHVCCFECIDCLPGTFLNHTEDEYECQACPNNEWSYQSETSCFKRQLVFLEWHEAPTIAVALLAALGFLSTLAILVIFWRHFQTPIVRSAGGPMCFLMLTLLLVAYMVVPVYVGPPKVSTCLCRQALFPLCFTICISCIAVRSFQIVCAFKMASRFPRAYSYWVRYQGPYVSMAFITVLKMVIVVIGMLATGLSPTTRTDPDDPKITIVSCNPNYRNSLLFNTSLDLLLSVVGFSFAYMGKELPTNYNEAKFITLSMTFYFTSSVSLCTFMSAYSGVLVTIVDLLVTVLNLLAISLGYFGPKCYMILFYPERNTPAYFNSMIQGYTMRRD	2

Reference: paper PMC8593021, “Biophysical and functional characterization of the human TAS1R2 sweet taste receptor overexpressed in a HEK293S inducible cell line” (Scientific Reports, 2021)
